Reference: patent US20260365628A1, “SUBSTITUTED 3,4-DIHYDROQUINOLINONE INHIBITORS OF TSHR” (Septerna, Inc., priority 2022, published 2026)
pIC50: −log10 of the molar value.

Target: T1, hTSHR (Homo sapiens, UniProt P16473)
T1 construct: expressed in transfected cells
Test: hTSHR TR-FRET cAMP Assay (inhibition of M22-stimulated cAMP production)
Format: cell-based
Conditions: Expi293F Inducible cells stably expressing hTSHR; cAMP HTRF; stimulated with EC80 of anti-TSHR antibody M22; 15 min compound preincubation, 30 min at 37° C.; read-out: Activity (IC50 bins)
How it was run: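 Readout was a cAMP HTRF ratio of 655/620 nm after lysis, scaled between the EC80 M22 signal (0% inhibition) and no-agonist vehicle (100%). Frozen induced Expi293F-hTSHR cells saw test compounds (0.5% DMSO) for 15 min at 37 °C before 30 min of M22 stimulation at EC80.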

T1 sequence (P16473 21-764): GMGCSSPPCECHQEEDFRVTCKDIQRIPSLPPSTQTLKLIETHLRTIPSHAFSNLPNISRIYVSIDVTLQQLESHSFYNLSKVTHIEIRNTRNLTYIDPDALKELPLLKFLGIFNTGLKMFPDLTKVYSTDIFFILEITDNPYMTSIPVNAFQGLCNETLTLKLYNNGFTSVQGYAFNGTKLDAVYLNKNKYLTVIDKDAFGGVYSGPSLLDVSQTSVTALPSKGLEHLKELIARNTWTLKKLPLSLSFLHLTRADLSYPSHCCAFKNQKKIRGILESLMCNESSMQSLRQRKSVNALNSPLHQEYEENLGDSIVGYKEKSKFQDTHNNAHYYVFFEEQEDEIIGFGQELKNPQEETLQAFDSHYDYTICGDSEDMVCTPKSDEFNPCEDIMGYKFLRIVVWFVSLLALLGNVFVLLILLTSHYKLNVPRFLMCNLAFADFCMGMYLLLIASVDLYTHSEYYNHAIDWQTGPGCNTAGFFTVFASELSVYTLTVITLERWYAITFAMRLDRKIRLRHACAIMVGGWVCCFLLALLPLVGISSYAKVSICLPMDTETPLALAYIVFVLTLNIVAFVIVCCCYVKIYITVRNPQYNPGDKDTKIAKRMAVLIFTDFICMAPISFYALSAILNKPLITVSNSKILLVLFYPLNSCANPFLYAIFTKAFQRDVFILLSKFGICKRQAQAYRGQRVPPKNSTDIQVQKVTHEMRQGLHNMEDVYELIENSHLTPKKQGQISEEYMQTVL

Compound	pIC50
C[C@H](c1cncc(C(F)(F)F)n1)N1C(=O)[C@@H](C)Oc2cc(NC(=O)NC(C)(C)C)ccc21 [Example 307, 1-(tert-butyl)-3-((R)-2-methyl-3-oxo-4-((R)-1-(6-(trifluoromethyl)pyrazin-2-yl)ethyl)-3,4-dihydro-2H-benzo[b][1,4]oxazin-7-yl)urea]	6.00 to 7.00
CC(C)(C)NC(=O)Nc1ccc2c(c1)CCC(=O)N2CC1CCCCC1 [Example 64, 1-(tert-butyl)-3-(1-(cyclohexylmethyl)-2-oxo-1,2,3,4-tetrahydroquinolin-6-yl)urea]	< 6.00
C[C@H]1Oc2cc(NC(=O)NC3(C)CCC3)ccc2N([C@@H](C)c2ccccc2)C1=O [Example 255, 1-((R)-2-methyl-3-oxo-4-((S)-1-phenylethyl)-3,4-dihydro-2H-benzo[b][1,4]oxazin-7-yl)-3-(1-methylcyclobutyl)urea]	> 7.00
C[C@H]1Oc2cc(NC(=O)NC(C)(C)C)ccc2N([C@@H](C)c2ccnc(C(F)(F)F)n2)C1=O (single isomer, unassigned) [Example 310]	6.00 to 7.00
C[C@@H](c1cc(F)ccc1Cl)n1c(=O)cnc2cc(NC(=O)NC(C)(C)C)ccc21 [Example 147, (S)-1-(tert-butyl)-3-(1-(1-(2-chloro-5-fluorophenyl)ethyl)-2-oxo-1,2-dihydroquinoxalin-6-yl)urea]	6.00 to 7.00
COc1cccc([C@H](C)N2C(=O)CCc3cc(NC(=O)NC(C)(C)C)ccc32)c1 [Example 297, (S)-1-(tert-butyl)-3-(1-(1-(3-methoxyphenyl)ethyl)-2-oxo-1,2,3,4-tetrahydroquinolin-6-yl)urea]	6.00 to 7.00
C[C@@H](c1cccc(C2CC2)c1)n1c(=O)cnc2cc(NC(=O)NC(C)(C)C)ccc21 [Example 134, (S)-1-(tert-butyl)-3-(1-(1-(3-cyclopropylphenyl)eth-yl)-2-oxo-1,2-dihydroquinoxalin-6-yl)urea]	6.00 to 7.00
CC1(C)CCN(C(=O)Nc2ccc3c(c2)ncc(=O)n3Cc2ccccc2)C1 [Example 194, N-(1-benzyl-2-oxo-1,2-dihydroquinoxalin-6-yl)-3,3-dimethylpyrrolidine-1-carboxamide]	< 6.00
C[C@@H](c1cccc(C(F)(F)F)n1)n1c(=O)cnc2cc(NC(=O)NC(C)(C)C)ccc21 [Example 103, (S)-1-(tert-butyl)-3-(2-oxo-1-(1-(6-(tri-fluoromethyl)pyridin-2-yl)ethyl)-1,2-dihydroquinoxalin-6-yl)urea]	6.00 to 7.00
C[C@H]1Oc2cc(NC(=O)NC(C)(C)C)ccc2N(Cc2cccc([C@H](O)C(F)(F)F)c2)C1=O [Example 175, 1-(tert-butyl)-3-((R)-2-methyl-3-oxo-4-(3-((S)-2,2,2-trifluoro-1-hydroxyethyl)benzyl)-3,4-dihydro-2H-benzo [b][1,4]oxazin-7-yl)urea]	6.00 to 7.00
C[C@H]1Oc2cc(NC(=O)NC(C)(C)C)ccc2N([C@@H](C)c2ccccc2)C1=O [Example 269, 1-(tert-butyl)-3-((R)-2-methyl-3-oxo-4-((S)-1-phenylethyl)-3,4-dihydro-2H-benzo[b][1,4]oxazin-7-yl)urea]	> 7.00
C[C@@H](c1cc(Cl)ccc1F)n1c(=O)cnc2cc(NC(=O)NC(C)(C)C)c(Cl)cc21 [Example 372, (S)-1-(tert-butyl)-3-(7-chloro-1-(1-(5-chloro-2-fluorophenyl)ethyl)-2-oxo-1,2-dihydroquinoxalin-6-yl)urea]	> 7.00
C[C@@H](c1cccc(OC(F)(F)F)c1)n1c(=O)cnc2cc(NC(=O)N[C@H]3C[C@@H](C(F)(F)F)C3)ccc21 [Example 224, 1-(2-oxo-1-((S)-1-(3-(trifluoromethoxy)phenyl)ethyl)-1,2-dihydroquinoxalin-6-yl)-3-((1s,3S)-3-(trifluoromethyl)cyclobutyl)urea]	6.00 to 7.00
C[C@H]1Cc2cc(NC(=O)NC(C)(C)C)c(F)cc2N(Cc2ccccc2)C1=O (single isomer, unassigned) [Example 333]	< 6.00
CC(C)(C)NC(=O)Nc1ccc2c(c1)OCC(=O)N2Cc1cccc(OC(F)(F)F)c1 [Example 74, 1-(tert-butyl)-3-(3-oxo-4-(3-(tri-fluoromethoxy)ben-zyl)-3,4-dihydro-2H-benzo[b][1,4]oxa-zin-7-yl)urea]	6.00 to 7.00
CC(C)(C)NC(=O)Nc1c(F)cc2c(c1F)CCC(=O)N2Cc1ccccc1 [Example 345, 1-(1-benzyl-5,7-difluoro-2-oxo-1,2,3,4-tetrahydroquinolin-6-yl)-3-(tert-butyl) urea]	6.00 to 7.00
C[C@@H](c1cccc(C(F)(F)F)c1)n1c(=O)cnc2cc(NC(=O)NC(C)(C)C)ccc21 [Example 99, (S)-1-(tert-butyl)-3-(2-oxo-1-(1-(3-(trifluoromethyl)phenyl)ethyl)-1,2-dihydroquinoxalin-6-yl)urea]	6.00 to 7.00
C[C@@H]1Oc2cc(NC(=O)NC(C)(C)C)ccc2N(Cc2cccc(C(F)(F)F)c2)C1=O [Example 82]	6.00 to 7.00

Compound	pIC50
C[C@@H](c1ccc(F)c(OC(F)(F)F)c1)n1c(=O)cnc2cc(NC(=O)NC(C)(C)C)ccc21 [Example 105, (S)-1-(tert-buty1)-3-(1-(1-(4-fluoro-3-(trifluoromethoxy)phe-nyl)ethyl)-2-oxo-1,2-dihydroquinoxalin-6-yl)urea]	> 7.00
C[C@H]1Oc2cc(NC(=O)NC3CCCCC3)ccc2N(Cc2cccc(C(F)(F)F)n2)C1=O [Example 228, (R)-1-cyclohexyl-3-(2-methyl-3-oxo-4-((6-(trifluoromethyl)pyridin-2-yl)methyl)-3,4-dihydro-2H-benzo[b][1,4]oxazin-7-yl)urea]	> 7.00
Cc1cccc(CN2C(=O)CCc3cc(NC(=O)NC(C)(C)C)ccc32)c1F [Example 48, 1-(tert-butyl)-3-(1-(2-fluoro-3-methylbenzyl)-2-oxo-1,2,3,4-tetrahydroquinolin-6-yl)urea]	> 7.00
C[C@@H](c1ccc(Cl)c(Cl)c1)n1c(=O)cnc2cc(NC(=O)NC(C)(C)C)ccc21 [Example 133, (S)-1-(tert-butyl)-3-(1-(1-(3,4-dichlorophenyl)ethyl)-2-oxo-1,2-dihydroquinoxalin-6-yl)urea]	6.00 to 7.00
CC(C)(C)NC(=O)Nc1ccc2c(c1)OCC(=O)N2Cc1cccc(C(F)(F)F)c1 [Example 50, 1-(tert-butyl)-3-(3-oxo-4-(3-(trifluoromethyl)benzyl)-3,4-dihydro-2H-benzo[b][1,4]oxazin-7-yl)urea]	> 7.00
O=C(Nc1ccccc1)Nc1ccc2c(c1)CCC(=O)N2Cc1ccccc1 [Example 284, 3-(1-benzyl-2-oxo-3,4-dihydroquinolin-6-yl)-1-phenylurea]	< 6.00
C[C@H]1Oc2c(cc(C#N)c(NC(=O)NC(C)(C)C)c2F)N(Cc2cccc(C(F)F)c2)C1=O [Example 370, (R)-1-(tert-butyl)-3-(6-cyano-4-(3-(difluoromethyl)benzyl)-8-fluoro-2-methyl-3-oxo-3,4-dihydro-2H-benzo[b][1,4]oxazin-7-yl)urea]	> 7.00
C[C@@H](c1cccc(C2CCC2)c1)n1c(=O)cnc2cc(NC(=O)NC(C)(C)C)ccc21 [Example 135, (S)-1-(tert-butyl)-3-(1-(1-(3-cyclo-butylphenyl)ethyl)-2-oxo-1,2-dihydroquinoxalin-6-yl)urea]	6.00 to 7.00
CC(C)(C)NC(=O)Nc1ccc2c(c1)OCC(=O)N2Cc1cccc(C(F)F)c1 [Example 71, 1-(tert-butyl)-3-(4-(3-(difluoromethyl)benzyl)-3-oxo-3,4-dihydro-2H-benzo[b][1,4]oxazin-7-yl)urea]	6.00 to 7.00
C[C@H]1Oc2nc(NC(=O)NC(C)(C)C)c(C#N)cc2N(Cc2cccc(C(F)F)c2)C1=O [Example 371, (R)-1-(tert-butyl)-3-(7-cyano-1-(3-(difluoromethyl)benzyl)-3-methyl-2-oxo-2,3-dihydro-1H-pyrido[2,3-b][1,4]oxazin-6-yl)urea]	> 7.00
CC(C)(C)NC(=O)Nc1ccc2c(c1)nc(N)c(=O)n2Cc1ccccc1 [Example 294, 1-(3-amino-1-benzyl-2-oxo-1,2-dihydroquinoxalin-6-yl)-3-(tert-butyl)urea]	< 6.00
C[C@@H](c1cccc(OC2CCCCC2)c1)n1c(=O)cnc2cc(NC(=O)NC(C)(C)C)ccc21 [Example 115, (S)-1-(tert-butyl)-3-(1-(1-(3-(cyclohexyloxy)phenyl)ethyl)-2-oxo-1,2-dihydroquinoxalin-6-yl)urea]	6.00 to 7.00
CC(C)(C)NC(=O)Nc1ccc2c(c1)OCC(=O)N2Cc1cccc(C(O)CC(F)(F)F)c1 (centres unmarked) [Example 80, 1-(tert-butyl)-3-(3-oxo-4-(3-(3,3,3-trifluoro-1-hydroxypropyl)ben-zyl)-3,4-dihydro-2H-benzo[b][1,4]oxa-zin-7-yl)urea]	6.00 to 7.00
CC(C)(C)NC(=O)Nc1ccc2c(c1)OCC(=O)N2C(c1ccccc1)C(F)(F)F (centres unmarked) [Example 296, 1-(tert-butyl)-3-(3-oxo-4-(2,2,2-trifluoro-1-phenylethyl)-3,4-dihydro-2H-benzo[b][1,4]oxazin-7-yl)urea]	6.00 to 7.00
Cc1c(NC(=O)NC(C)(C)C)ccc2c1ncc(=O)n2[C@@H](C)c1cccc(OC(F)(F)F)c1 [Example 209, (S)-1-(tert-butyl)-3-(5-methyl-2-oxo-1-(1-(3-(trifluoromethoxy)phenyl)ethyl)-1,2-dihydroquinoxalin-6-yl)urea]	6.00 to 7.00
C[C@@H](c1cccc(OC(F)(F)F)c1)n1c(=O)cnc2cc(NC(=O)NC34CC(C3)C4)ccc21 [Example 206, (S)-1-(bicycl[1.1.1]pentan-1-yl)-3-(2-oxo-1-(1-(3-(trifluoromethoxy)phenyl)ethyl)-1,2-dihydroquinoxalin-6-yl)urea]	6.00 to 7.00
C[C@@H](c1ccccc1)n1c(=O)cnc2cc(NC(=O)NC(C)(C)C)c(CO)cc21 [Example 360, (S)-1-(tert-butyl)-3-(7-(hydroxymethyl)-2-oxo-1-(1-phenylethyl)-1,2-dihydroquinoxalin-6-yl)urea]	< 6.00
